Holding throughout (assay type): in vivo
Test [1] deals with giant foxtail (Setaria faberii). As to the kind of experiment: Test A preemergence. The note with it: Setaria faberi, pre-emergence, 240 h; for pest or weed control at 125 g/ha: 125 g ai/ha, preemergence, 0 to 100 scale where 0 is no effect and 100 is complete control, read-out: Foxtail, Giant plant response rating; for pest or weed control at 500 g/ha: 500 g ai/ha, Preemergence, visual injury vs untreated controls after approximately 10 d, read-out: Foxtail, Giant plant response rating (0 to 100 scale where 0 is no effect and 100 is complete control). The gist of the method: (§1)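 In a loam soil and sand blend, planted seeds got a preemergence directed soil spray, and young plants at the one- to two-leaf stage, 2–10 cm high, got a postemergence application; ~10 d greenhouse hold; injury rated visually, 0 = none, 100 = complete control.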

In test [2] the test system is Kochia (Kochia scoparia). As to the kind of experiment: Test A preemergence. The note with it: Bassia scoparia, pre-emergence, 240 h; for pest or weed control at 125 g/ha: 125 g ai/ha, preemergence, 0 to 100 scale where 0 is no effect and 100 is complete control, read-out: Kochia plant response rating; for pest or weed control at 500 g/ha: 500 g ai/ha, Preemergence, visual injury vs untreated controls after approximately 10 d, read-out: Kochia plant response rating (0 to 100 scale where 0 is no effect and 100 is complete control). The essentials:
as §1

In test [3] the test system is barnyardgrass (Echinochloa crus-galli). As to the kind of experiment: Test A preemergence. The note with it: Echinochloa crus-galli, pre-emergence, 240 h; for pest or weed control at 125 g/ha: 125 g ai/ha, preemergence, 0 to 100 scale where 0 is no effect and 100 is complete control, read-out: Barnyardgrass plant response rating; for pest or weed control at 500 g/ha: 500 g ai/ha, Preemergence, visual injury vs untreated controls after approximately 10 d, read-out: Barnyardgrass plant response rating (0 to 100 scale where 0 is no effect and 100 is complete control). The essentials: as §1

For test [4], the system named is ragweed (common ragweed, Ambrosia elatior). As to the kind of experiment: Test A preemergence. The note with it: Ambrosia artemisiifolia, pre-emergence, 240 h; for pest or weed control at 125 g/ha: 125 g ai/ha, preemergence, 0 to 100 scale where 0 is no effect and 100 is complete control, read-out: Ragweed plant response rating; for pest or weed control at 500 g/ha: 500 g ai/ha, Preemergence, visual injury vs untreated controls after approximately 10 d, read-out: Ragweed plant response rating (0 to 100 scale where 0 is no effect and 100 is complete control). The gist of the method: as §1

Test [5] relates to pigweed (Amaranthus retroflexus). In words: Test A preemergence. The note with it: Amaranthus retroflexus, pre-emergence, 240 h; for pest or weed control at 125 g/ha: 125 g ai/ha, preemergence, 0 to 100 scale where 0 is no effect and 100 is complete control, read-out: Pigweed plant response rating; for pest or weed control at 500 g/ha: 500 g ai/ha, Preemergence, visual injury vs untreated controls after approximately 10 d, read-out: Pigweed plant response rating (0 to 100 scale where 0 is no effect and 100 is complete control).

For test [6], the system named is ryegrass, Italian (Italian ryegrass, Lolium multiflorum). As to the kind of experiment: Test A preemergence. The note with it: Lolium multiflorum, pre-emergence, 240 h; for pest or weed control at 125 g/ha: 125 g ai/ha, preemergence, 0 to 100 scale where 0 is no effect and 100 is complete control, read-out: Ryegrass, Italian plant response rating; for pest or weed control at 500 g/ha: 500 g ai/ha, Preemergence, visual injury vs untreated controls after approximately 10 d, read-out: Ryegrass, Italian plant response rating (0 to 100 scale where 0 is no effect and 100 is complete control). The gist of the method: as §1

For test [7], the system named is Galium (catchweed bedstraw, Galium aparine). As to the kind of experiment: Test A postemergence. The note with it: Galium, post-emergence, 240 h, 125 g ai/ha, postemergence, visual injury rating after approximately 10 d; read-out: Galium plant response rating (0 to 100 scale, 0 no effect, 100 complete control). The gist of the method:
as §1

Test [8] deals with giant foxtail (Setaria faberii). In words: Test A postemergence. Particulars: Setaria faberi, post-emergence, 240 h, 125 g ai/ha, postemergence, visual injury rating after approximately 10 d; read-out: Foxtail, Giant plant response rating (0 to 100 scale, 0 no effect, 100 complete control). The essentials:
as §1

Test [9] has as its system Kochia (Kochia scoparia). In words: Test A postemergence. Particulars: Bassia scoparia, post-emergence, 240 h, 125 g ai/ha, postemergence, visual injury rating after approximately 10 d; read-out: Kochia plant response rating (0 to 100 scale, 0 no effect, 100 complete control). The gist of the method:
as §1

Test [10] deals with barnyardgrass (Echinochloa crus-galli). In words: Test A postemergence. The note with it: Echinochloa crus-galli, post-emergence, 240 h, 125 g ai/ha, postemergence, visual injury rating after approximately 10 d; read-out: Barnyardgrass plant response rating (0 to 100 scale, 0 no effect, 100 complete control). The gist of the method: as §1
The next test has as its system corn (Zea mays). In words: Test A postemergence. Particulars: Zea mays, post-emergence, 240 h, 125 g ai/ha, postemergence, visual injury rating after approximately 10 d; read-out: Corn plant response rating (0 to 100 scale, 0 no effect, 100 complete control). The gist of the method: as §1
In test [11] the test system is ragweed (common ragweed, Ambrosia elatior). As to the kind of experiment: Test A postemergence. Particulars: Ambrosia artemisiifolia, post-emergence, 240 h, 125 g ai/ha, postemergence, visual injury rating after approximately 10 d; read-out: Ragweed plant response rating (0 to 100 scale, 0 no effect, 100 complete control). The essentials: as §1
Test [12] concerns wheat (Triticum aestivum). In words: Test A postemergence. The note with it: Triticum aestivum, post-emergence, 240 h, 125 g ai/ha, postemergence, visual injury rating after approximately 10 d; read-out: Wheat plant response rating (0 to 100 scale, 0 no effect, 100 complete control). The essentials:
as §1

Test [13] relates to blackgrass (Alopecurus myosuroides). As to the kind of experiment: Test A postemergence. The note with it: Alopecurus myosuroides, post-emergence, 240 h, 125 g ai/ha, postemergence, visual injury rating after approximately 10 d; read-out: Blackgrass plant response rating (0 to 100 scale, 0 no effect, 100 complete control). The gist of the method:
as §1

The subject of test [14] is ryegrass, Italian (Italian ryegrass, Lolium multiflorum). In words: Test A postemergence. The note with it: Lolium multiflorum, post-emergence, 240 h, 125 g ai/ha, postemergence, visual injury rating after approximately 10 d; read-out: Ryegrass, Italian plant response rating (0 to 100 scale, 0 no effect, 100 complete control). The essentials: as §1

Molecules are shown by their SMILES.

For `O=C1NC[C@H](c2cccc(C(F)(F)F)c2)[C@H]1C(=O)Nc1cccc2c1OC(F)(F)O2` [Compound 827], the pest or weed control at 125 g/ha in test [1] was determined as 90%; in the test on Kochia (Kochia scoparia) [2], 30%; in test [3], 90%; in [4] it was 0%; in [5], 20%; in test [6], 30%. Besides, the pest or weed control at 125 g/ha in test [7] is 40%; in test [8], 80%; in the test on Kochia (Kochia scoparia) [9] it was 0%; in test [10], 70%; in test [11] it was 0%; in test [13], 40%. Moreover, the pest or weed control at 125 g/ha in test [14] is 0%. The pest or weed control at 500 g/ha was found to be 90% in test [1]; 60% in the test with Kochia (Kochia scoparia) [2]; 90% in [3]; 20% in [4]; 40% in test [5]; 70% in test [6]. Moreover, the plant injury at 125 g/ha (in the test with corn (Zea mays); in [12]) was 20% throughout.

With `COc1c(F)ccc([C@H]2CNC(=O)[C@@H]2C(=O)Nc2ccc(F)cc2F)c1Cl` [Compound 883], the pest or weed control at 125 g/ha was determined as 60% in test [1]; 30% with Kochia (Kochia scoparia) [2]; 90% in test [3]; 0% in [4]; 0% in test [5]; 0% in test [6]. The pest or weed control at 125 g/ha in [7] is 0%; in [8], 70%; in the test on Kochia (Kochia scoparia) [9], 30%; in [10], 90%; in test [11], 0%; in test [13], 0%. The pest or weed control at 125 g/ha in test [14] came out at 0%. The pest or weed control at 500 g/ha in [1] worked out at 90%; with Kochia (Kochia scoparia) [2], 60%; in test [3] it was 90%; in test [4], 0%; in test [5], 0%; in test [6], 20%. The plant injury at 125 g/ha (in the test on corn (Zea mays); in [12]) was 0% each time.

These data come from patent US12077503B2, “Substituted cyclic amides and their use as herbicides” (FMC CORPORATION, priority 2015, dated 2024).
